According to patent publication US20100119512A1, “METHODS OF DIAGNOSING, TREATING, AND PREVENTING INCREASED VASCULAR PERMEABILITY” (Joslin Diabetes Center, priority 2007, published 2010):

What was measured:
[1] = tested on: prekallikrein (PK) activation by FXII; test: PK activation by FXII in the presence of HK, fluorogenic kallikrein substrate; assay type: biochemical, human; conditions: for effect on kallikrein activation in vitro: PK activation by FXII in the presence of HK
Description: FIG. 2 is a line graph illustrating the effect of varying concentrations of C1-INH on PK activation by FXII in the presence of HK. Kallikrein activity was measured as cleavage of synthetic fluorogenic kallikrein substrate (0.4 mM) on a microplate reader at 37° C. at 15 minutes (means±s.e.m.; n=4).
FIG. 3 is line graph illustrating the effect of varying concentrations of anti-PK antibody on PK activation by FXII in the presence of HK (means±s.e.m. n=5-6).
The effects of C1-INH and anti-PK antibody on the kinetics of PK activation by factor XII (FXII) were monitored in vitro using a fluorescent kallikrein substrate. Fluorogenic kallikrein substrate (H-D-Val-Leu-Arg-AFC; Calbiochem) was used to quantify kallikrein enzymatic activity.

[2] = tested on: retinal vascular permeability; conditions: rats, cited from earlier work

CA-I: human erythrocyte CA-I (Sigma), carbonic anhydrase 1
effect on kallikrein activation in vitro [1]: Neither CA-I or bicarbonate ion affected
effect of intravitreal injection on retinal vascular permeability ([2]; intravitreal): increased

CC(=O)Nc1nnc(S(N)(=O)=O)s1 [acetazolamide, reference compound]
effect on increased retinal permeability induced by transplant of vitreous from patients with advanced diabetic retinopathy [2]: blocked

O=C(O)O [bicarbonate ion]
effect on kallikrein activation in vitro [1]: Neither CA-I or bicarbonate ion affected

B1: C1-INH: C1 inhibitor; binds covalently to the active site of FXII (protein, UniProt P05155 23-500, looked up)
Plasma protease C1 inhibitor: NPNATSSSSQDPESLQDRGEGKVATTVISKMLFVEPILEVSSLPTTNSTTNSATKITANTTDEPTTQPTTEPTTQPTIQPTQPTTQLPTDSPTQPTTGSFCPGPVTLCSDLESHSTEAVLGDALVDFSLKLYHAFSAMKKVETNMAFSPFSIASLLTQVLLGAGENTKTNLESILSYPKDFTCVHQALKGFTTKGVTSVSQIFHSPDLAIRDTFVNASRTLYSSSPRVLSNNSDANLELINTWVAKNTNNKISRLLDSLPSDTRLVLLNAIYLSAKWKTTFDPKKTRMEPFHFKNSVIKVPMMNSKKYPVAHFIDQTLKAKVGQLQLSHNLSLVILVPQNLKHRLEDMEQALSPSVFKAIMEKLEMSKFQPTLLTLPRIKVTTSQDMLSIMEKLEFFDFSYDLNLCGLTEDPDLQVSAMQHQTVLELTETGVEAAAASAISVARTLLVFEVQQPFLFVLWDQQHKFPVFMGRVYDPRA
effect on PK activation (kallikrein activity) ([1]; varying concentrations, FXII and HK present, fluorogenic kallikrein substrate 0.4 mM, 37° C., 15 minutes): inhibited
effect on CA-1-induced retinal vascular permeability ([2]; intravitreal CA-1): blocked
